Reference: patent US20250230193A1, “CYCLIC COMPOUND HAVING SELECTIVE KRAS INHIBITORY EFFECT ON HRAS AND NRAS” (CHUGAI SEIYAKU KABUSHIKI KAISHA, priority 2022, published 2025)
Where a SMILES comes first, the peptide text is derived from it. Bridges are numbered along the chain shown (N, C = ends). [ ]: non-standard residue; d: D form. The star is where a group is joined. hPhe(3-Cl-4-CF3) = N[C@@H](CCc1ccc(C(F)(F)F)c(Cl)c1)C(=O)O; NEtPhe(4-CF3) = CCN[C@@H](Cc1ccc(C(F)(F)F)cc1)C(=O)O; NMeGly(cPent) = CN[C@H](C(=O)O)C1CCCC1; NMeD = CN[C@@H](CC(=O)O)C(=O)O; NMeL = CN[C@@H](CC(C)C)C(=O)O; Morpholide = C1CN(*)CCO1; Aib = CC(C)(N)C(=O)O; Sar = CNCC(=O)O

Assays:
[1] = target: GDP-bound NRAS wild-type protein (Homo sapiens, UniProt P01111); assay: Binding to NRAS by surface plasmon resonance (SPR), Single Cycle Kinetics; conditions: for NRAS/KRAS (ratio of KD value for NRAS to KD value for KRAS) / NRAS/KRAS (ratio of KD value with respect to NRAS to KD value with respect to KRAS): GDP-bound NRAS wild-type vs GDP-bound KRAS wild-type
Sequence of GDP-bound NRAS wild-type protein (P01111 whole entry): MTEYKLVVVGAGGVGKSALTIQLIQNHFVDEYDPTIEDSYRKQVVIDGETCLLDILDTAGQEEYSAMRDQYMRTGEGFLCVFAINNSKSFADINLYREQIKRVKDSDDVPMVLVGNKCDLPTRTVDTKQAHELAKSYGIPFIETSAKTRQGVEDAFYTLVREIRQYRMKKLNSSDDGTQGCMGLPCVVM

[2] = target: GDP-bound HRAS wild-type protein (Homo sapiens, UniProt P01112); assay: Binding to HRAS by surface plasmon resonance (SPR), Single Cycle Kinetics; conditions: for HRAS/KRAS (ratio of KD value for HRAS to KD value for KRAS) / HRAS/KRAS (ratio of KD value with respect to HRAS to KD value with respect to KRAS): GDP-bound HRAS wild-type vs GDP-bound KRAS wild-type
Sequence of GDP-bound HRAS wild-type protein (P01112 whole entry): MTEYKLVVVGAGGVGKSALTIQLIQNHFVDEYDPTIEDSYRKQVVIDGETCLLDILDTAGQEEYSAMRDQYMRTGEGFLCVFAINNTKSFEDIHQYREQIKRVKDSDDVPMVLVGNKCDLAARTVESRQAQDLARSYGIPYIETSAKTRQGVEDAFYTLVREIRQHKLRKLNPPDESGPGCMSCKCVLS

[3] = KD ratio NRAS/KRAS, class symbols
[4] = KD ratio HRAS/KRAS, class symbols

For `CCC[C@H]1C(=O)N[C@@H]([C@@H](C)CC)C(=O)N(C)CC(=O)N(C)[C@H]2C/C=C\CCN(C2=O)[C@@H](Cc2ccc(C(F)F)cc2)C(=O)N(C)CC(=O)N[C@@H](CCc2ccc(Cl)c(Cl)c2)C(=O)N2C[C@H](OC(C)C)C[C@H]2C(=O)NC2(CC(C)(C)C2)C(=O)N(C)[C@@H](C(CC)CC)C(=O)N(C)[C@H](C(=O)N(C)C)CC(=O)N1C` [PP2535], the “NRAS/KRAS (ratio of KD value with respect to GDP-bound NRAS wild-type protein to KD value with respect to KRAS)” value [1, 3] was “AA (a compound having 20 or more is denoted as AA)” and the “HRAS/KRAS (ratio of KD value with respect to GDP-bound HRAS wild-type protein to KD value with respect to KRAS)” value [2, 4] was “A (a compound having 10 or more and less than 20 is denoted as A)”.

For `CCCN(C)C(=O)[C@@H]1CC(=O)N(C)[C@@H](CC)C(=O)N[C@@H]([C@@H](C)CC)C(=O)N(C)CC(=O)N(C)[C@H]2C/C=C\CCN(C2=O)[C@@H](Cc2ccc(C(F)(F)F)cc2)C(=O)N(C)CC(=O)N[C@@H](CCc2ccc(C(F)(F)F)c(OC)c2)C(=O)N2C[C@H](OCC)C[C@H]2C(=O)NC2(CC(C)(C)C2)C(=O)N(C)[C@@H](C2CCCC2)C(=O)N1C` [PP1654], the “NRAS/KRAS (ratio of KD value for NRAS to KD value for KRAS)” value ([1]; KD ratio, SPR) was “A (a compound having 10 or more and less than 20 is denoted as A)” and the “HRAS/KRAS (ratio of KD value for HRAS to KD value for KRAS)” value ([2]; KD ratio, SPR) was “A (a compound having 10 or more and less than 20 is denoted as A)”.

`CCC[C@H]1C(=O)N[C@@H](CC(C)C)C(=O)N(C2CC2)CC(=O)N(C)[C@H]2C/C=C\CCN(C2=O)[C@@H](Cc2ccc(C)cc2)C(=O)N(C)CC(=O)N[C@@H](CCc2cc(F)c(C(F)(F)F)c(F)c2)C(=O)N2C[C@H](OCC)C[C@H]2C(=O)NC2(CCC2)C(=O)N(C)[C@@H](C2CCCC2)C(=O)N(C)[C@H](C(=O)N(C)C)CC(=O)N1C` [PP2532] was tested, and the “NRAS/KRAS (ratio of KD value with respect to GDP-bound NRAS wild-type protein to KD value with respect to KRAS)” value [1, 3] was “A (a compound having 10 or more and less than 20 is denoted as A)” and the “HRAS/KRAS (ratio of KD value with respect to GDP-bound HRAS wild-type protein to KD value with respect to KRAS)” value [2, 4] was “B (a compound having 3 or more and less than 10 is denoted as B)”.

In the case of `CCO[C@@H]1C[C@H]2C(=O)NC3(CC(C)(C)C3)C(=O)N(C)[C@@H](C3CCCC3)C(=O)N(C)[C@H](C(=O)N(C)CC)CC(=O)N(C)[C@H]3C/C=C/c4ccc(cc4)C[C@@H](C(=O)N(C)CC(=O)N[C@@H](CCc4ccc(Cl)c(Cl)c4)C(=O)N2C1)N1CC/C=C\C[C@@H](C1=O)N(C)C(=O)CN(C)C(=O)[C@H]([C@@H](C)CC)NC3=O` [PP3056], the “NRAS/KRAS (ratio of KD value with respect to GDP-bound NRAS wild-type protein to KD value with respect to KRAS)” value ([1]; KD ratio NRAS/KRAS, SPR, GDP-bound wild-type proteins) is reported as “A (a compound having 10 or more and less than 20 is denoted as A)” and the “HRAS/KRAS (ratio of KD value with respect to GDP-bound HRAS wild-type protein to KD value with respect to KRAS)” value ([2]; KD ratio HRAS/KRAS, SPR, GDP-bound wild-type proteins) is reported as “A (a compound having 10 or more and less than 20 is denoted as A)”.

In the case of `CC[C@H](C)[C@@H]1NC(=O)[C@H](CC(C)C)N(C)C(=O)C[C@@H](C(=O)N2CCOCC2)N(C)C(=O)[C@H](C2CCCC2)N(C)C(=O)C2(CCC2)NC(=O)[C@@H]2CCCN2C(=O)[C@H](CCc2cc(F)c(C(F)(F)F)c(F)c2)NC(=O)CN(C)C(=O)[C@H](Cc2ccc(C(F)(F)F)cc2)N2CCCC[C@@H](C2=O)N(C)C(=O)CN(C)C1=O` [PP0560], the “NRAS/KRAS (ratio of KD value with respect to GDP-bound NRAS wild-type protein to KD value with respect to KRAS)” value ([1]; KD ratio NRAS/KRAS, SPR) is reported as “B (a compound having 3 or more and less than 10 is denoted as B)” and the “HRAS/KRAS (ratio of KD value with respect to GDP-bound HRAS wild-type protein to KD value with respect to KRAS)” value ([2]; KD ratio HRAS/KRAS, SPR) is reported as “B (a compound having 3 or more and less than 10 is denoted as B)”.

For `CCC[C@H]1C(=O)N[C@@H]([C@@H](C)CC)C(=O)N(C)CC(=O)N(C)[C@H]2C/C=C\CCN(C2=O)[C@@H](Cc2ccc(C(F)(F)F)cc2)C(=O)N(C)CC(=O)N[C@@H](CCc2ccc(Cl)c(Cl)c2)C(=O)N2CC[C@H]2C(=O)NC2(CC(C)(C)C2)C(=O)N(C)[C@@H](C(CC)CC)C(=O)N(C)[C@H](C(=O)N(C)C)CC(=O)N1C` [PP2921], the “NRAS/KRAS (ratio of KD value with respect to GDP-bound NRAS wild-type protein to KD value with respect to KRAS)” value [1, 3] was “AA (a compound having 20 or more is denoted as AA)” and the “HRAS/KRAS (ratio of KD value with respect to GDP-bound HRAS wild-type protein to KD value with respect to KRAS)” value [2, 4] was “A (a compound having 10 or more and less than 20 is denoted as A)”.

`CCC[C@H]1C(=O)N[C@@H](CC(C)C)C(=O)N(CCOC)CC(=O)N(C)[C@H]2C/C=C\CCN(C2=O)[C@@H](Cc2ccc(C)cc2)C(=O)N(C)CC(=O)N[C@@H](CCc2ccc(C(F)(F)F)c(OC)c2)C(=O)N2C[C@H](OCC)C[C@H]2C(=O)NC2(CCC2)C(=O)N(C)[C@@H](C2CCCC2)C(=O)N(C)[C@H](C(=O)N(C)C)CC(=O)N1C` [PP2542] was tested, and the “NRAS/KRAS (ratio of KD value with respect to GDP-bound NRAS wild-type protein to KD value with respect to KRAS)” value [1, 3] was “B (a compound having 3 or more and less than 10 is denoted as B)” and the “HRAS/KRAS (ratio of KD value with respect to GDP-bound HRAS wild-type protein to KD value with respect to KRAS)” value [2, 4] was “B (a compound having 3 or more and less than 10 is denoted as B)”.

With `CC[C@H](C)[C@@H]1NC(=O)[C@H](C(C)C)N(C)C(=O)C[C@@H](C(=O)N(C)CC)N(C)C(=O)[C@H](C2CCCC2)N(C)C(=O)C2(CC(C)(C)C2)NC(=O)[C@@H]2C[C@H](C)CN2C(=O)[C@H](CCc2ccc(C(F)(F)F)c(OC)c2)NC(=O)CN(C)C(=O)[C@H](Cc2ccc(C(F)(F)F)cc2)N2CC/C=C\C[C@@H](C2=O)N(C)C(=O)CN(C)C1=O` [PP2003] the “NRAS/KRAS (ratio of KD value for NRAS to KD value for KRAS)” value ([1]; KD ratio, SPR) was “A (a compound having 10 or more and less than 20 is denoted as A)” and the “HRAS/KRAS (ratio of KD value for HRAS to KD value for KRAS)” value ([2]; KD ratio, SPR) was “B (a compound having 3 or more and less than 10 is denoted as B)”.

`CC[C@H](C)[C@@H]1NC(=O)[C@H](CC(C)C)N(C)C(=O)C[C@@H](C(=O)N2CCOCC2)N(C)C(=O)[C@H](C2CCCC2)N(C)C(=O)C(C)(C)NC(=O)[C@@H]2CCCN2C(=O)[C@H](CCc2ccc(C(F)(F)F)c(Cl)c2)NC(=O)CN(C)C(=O)[C@H](Cc2ccc(C(F)(F)F)cc2)N(CC)C(=O)CN(C)C(=O)CN(C)C1=O` [PP0235] ([NMeL]I[Sar][Sar][NEtPhe(4-CF3)][Sar][hPhe(3-Cl-4-CF3)]P[Aib][NMeGly(cPent)][NMeD]-Morpholide; lactam N-11) was tested, and the “NRAS/KRAS (ratio of KD for GDP-bound NRAS wild-type to KD for KRAS)” value ([1]; KD ratio NRAS/KRAS, SPR) was “B (a compound having 3 or more and less than 10 is denoted as B)” and the “HRAS/KRAS (ratio of KD for GDP-bound HRAS wild-type to KD for KRAS)” value ([2]; KD ratio HRAS/KRAS, SPR) was “C (A compound having a KD ratio of 0.1 or more and less than 3 is denoted as C)”.

In the case of `CCO[C@@H]1C[C@H]2C(=O)NC3(CCC3)C(=O)N(C)[C@@H](C3CCCC3)C(=O)N(C)[C@H](C(=O)N(C)C)CC(=O)N(C)[C@@H](CC)C(=O)N[C@@H]([C@@H](C)CC)C(=O)N(C)CC(=O)N(C)[C@H]3C[C@@H](C)CCN(C3=O)[C@@H](Cc3ccc(C(F)(F)F)cc3)C(=O)N(C)CC(=O)N[C@@H](CCc3cc(F)c(C(F)(F)F)c(F)c3)C(=O)N2C1` [PP1020], the “NRAS/KRAS (ratio of KD value with respect to NRAS to KD value with respect to KRAS)” value ([1]; KD ratio, SPR) is reported as “C (A compound having a KD ratio of 0.1 or more and less than 3 is denoted as C)” and the “HRAS/KRAS (ratio of KD value with respect to HRAS to KD value with respect to KRAS)” value ([2]; KD ratio, SPR) is reported as “B (a compound having 3 or more and less than 10 is denoted as B)”.

With `CCCOC[C@H]1C(=O)N[C@@H]([C@@H](C)CC)C(=O)N(C)CC(=O)N(C)[C@H]2C/C=C\CCN(C2=O)[C@@H](Cc2ccc(C)cc2)C(=O)N(C)CC(=O)N[C@@H](CCc2ccc(C(F)(F)F)c(OC)c2)C(=O)N2C[C@@H](C)C[C@H]2C(=O)NC2(CC(C)(C)C2)C(=O)N(C)[C@@H](C2CCCC2)C(=O)N(C)[C@H](C(=O)N(C)CC)CC(=O)N1C` [PP2461] the “NRAS/KRAS (ratio of KD value with respect to NRAS to KD value with respect to KRAS)” value ([1]; SPR) was “A (a compound having 10 or more and less than 20 is denoted as A)” and the “HRAS/KRAS (ratio of KD value with respect to HRAS to KD value with respect to KRAS)” value ([2]; SPR) was “A (a compound having 10 or more and less than 20 is denoted as A)”.
